From patent EP0770606A1, “Cis-epoxide derivate useful as irreversible HIV protease inhibitor and process for its preparation” (LG Chemical Limited, priority 1995, dated 1997)
pIC50, pKi: −log10 of the molar value.

Columns and labels:
[1] = Cytotoxicity by trypan blue dye exclusion; assay type: cell-based; settings: human, h9 or sup t1 cells; concentration at which 50% of the cells die; 0.1µM to 100µM tested; cell line not stated; read-out: CT50 (the source's name)
Procedure: (§1) To determine the cytotoxicity of the compound of the present invention, 0.1µM to 100µM of the compound was added to H9 cell or Sup T1 cell and the mixture was cultured on a rpmi-1640 medium at 37°C. The medium was refreshed every 3 days and the extent of cell proliferation was observed using Hemacytometer according to the trypan blue dye exclusion technique which is well known in the art. CT50(i.e., the concentration at which 50% of the cells die) was determined.

HIV-1 = test: Anti-viral activity: inhibition of HIV proliferation in H9 (reverse transcriptase activity) and Sup T1 (syncytium formation) cell lines; assay type: cell-based; settings: concentration at which the proliferation of HIV is inhibited by 50%, H9 or Sup T1 cells, cell line not stated
Procedure: 1 x 10^5 cells of each of H9(ATCC HTB 176) and Sup T1 cell lines were added to the wells of a 24-well microtiter plate and the compound of the present invention was added thereto in various concentrations. 200 TCID50(200-fold of 50% tissue culture infection dose) of HIV-1 inoculum and rpmi-1640 medium(Sigma Chemical Co., U.S.A) were added successively to the wells and the plate was incubated at 37°C. In case of Sup T1, the number of syncytium formed was investigated after 3 to 9 days.
In the case of H9, three-quarters(3/4) of the culture medium was refreshed every 3 days. After 9 days, 6ml of the culture fluid was centrifuged at 1000rpm for 10 minutes. To 5ml of the resulting supernatant were added 2.5ml of 30% polyethylene glycol(PEG, M.W. 6000-8000) and 0.4M NaCl. The resulting solution was allowed to stand at 0°C overnight to precipitate virus particles. The solution was centrifuged at 2000rpm for 45 minutes, the supernatant was discarded therefrom and the precipitate was diluted with 20ml of a reverse transcriptase suspension buffer(50mM tris-HCl(Sigma), pH 7.5, 1mM dithiothreitol, 20% glycerol, 0.25M KCl and 0.25% Triton X-100). The resulting suspension was stored in an Effendorf tube at -70°C until use. A cycle of freezing the above virus suspension for 2 minutes in dry ice and thawing it at 37°C for 2 minutes was repeated three times and the resulting suspension was centrifuged at 4°C. The resulting supernatant was used in carrying out the reverse transcriptase assay.
10µl of the above virus suspension was added to a solution prepared by mixing: 10µl of buffer solution(250mM tris-HCl, pH 7.5, 37.5mM MgCl2, 0.25% triton X-100), 1.2µl of 200mM dithiothreitol, 5µl of 10µM oligo(dT)-poly(A)(Boeringer Mannheim, 12-18 oligomer), 1µl(1µCi) of ^3H-TTP(thymidinetriphosphate) and 23.6µl of water; and the resulting mixture was kept at 37°C. […] The amount of radioactivity was counted using a liquid scintillation counter.

H9 cell or Sup T1 cell = test: Cytotoxicity by trypan blue dye exclusion; assay type: cell-based; settings: human, h9 or sup t1 cells
Procedure: as §1

HIV-1 protease = molecular target: T1, HIV-1 protease (Human immunodeficiency virus type 1 group M subtype B, UniProt P04585); assay type: biochemical; settings: KINSIM/FITSIM analysis
T1 construct: adding 2.6nM of HIV-1 protease to the preincubation solution
Procedure: To a buffer solution comprising 50mM sodium acetate, pH 5.5, 1mM dithiothreitol(DTT), 1mM ethylenediaminetetraacetate (EDTA), 0.75M ammonium sulfate and 0.1% NP40(NONIDET P-40; Sigma Chemical Co., U.S.A.), was added a pre-determined amount of the compound obtained in Example to prepare a preincubation solution having a known concentration of the compound. The inhibition reaction was initiated by adding 2.6nM of HIV-1 protease to the preincubation solution. 10µl samples of the reaction solution were taken at a given time interval and each sample was added to 80µl of assay solution containing 100µM of reaction substrate in the same buffer solution as above to assay for the residual enzyme activity. […] The reaction rate was determined by subjecting both the substrate before the reaction and the product after the reaction to HPLC separation and then measuring the amount of the product relative to the substrate, using the strong absorbance of (p-NO2)-Phe at 280nm. The decrease in the enzyme activity with time was measured for each sample and the natural logarithmic values(ln) of the data points in a given experiment were plotted against time to obtain a linear correlation line. kobs was then calculated from the slope of the line.
The inhibition constant was calculated according to the following equation: (1)/(kobs)=(1)/(kina)+(KI)/(kina)(1)/([I]) [formula] wherein: kobs is a rate constant representing the rate of decrease in enzyme activity in the presence of the inhibitor, kina is a rate constant representing the rate of the irreversible covalent bond formation between the enzyme and the inhibitor (in Michaelis-Menten complex), KI is an inhibition constant represented by the equilibrium constant for the formation of the Michaelis-Menten complex from an enzyme and an inhibitor, and [I] designates the inhibitor concentration.
The inhibition constants KI, the rate constant kina and the second order rate constant kina/KI were tabulated by inputting the value of [E]/([E]+[EI]+[EI'] [formula] ) into KINSIM/FITSIM program.

| Compound | CC50 [1] [nM] | pIC50 (HIV-1; Human immunodeficiency virus 1) | CC50 (H9 cell or Sup T1 cell) [nM] | pIC50 (HIV-1) | pKi (HIV-1 protease; inhibition constant, 2.6nM HIV-1 protease, pH 5.5) | kina (HIV-1 protease; rate constant of irreversible covalent bond formation between enzyme and inhibitor) [min⁻¹] | kina/KI (HIV-1 protease; second order rate constant) |
| --- | --- | --- | --- | --- | --- | --- | --- |
| CC(C)(C)NC(=O)[C@@H]1CN(Cc2cccnc2)CCN1C[C@@H](O)C[C@@H](Cc1ccccc1)C(=O)N[C@H]1c2ccccc2C[C@H]1O [MK-639, reference compound] | 10000 | 8.00 |  |  |  |  |  |
| [(5S)-[(N-isopropyloxycarbonyl)-β-methanesulfonyl-L-valinyl]amino]-(4R, 3S)-epoxy-6-phenyl-1-hexanoyl]-[(2S)-(1-phenyl-3-methyl-1-oxo)butylamino]amide [compound of the present invention] |  |  | 10000 | 7.82 | 7.92 | 3.2 | 2.7 x 10^7 min^-1M^-1 |
| CC(C)c1nc(CN(C)C(=O)N[C@H](C(=O)N[C@@H](Cc2ccccc2)C[C@H](O)[C@H](Cc2ccccc2)NC(=O)OCc2cncs2)C(C)C)cs1 [ABI-538] |  |  |  | 7.28 |  |  |  |
